Test results taken from ChEMBL document CHEMBL1150338, “Prediction and identification of drug interactions with the human ATP-binding cassette transporter multidrug-resistance associated protein 2 (MRP2; ABCC2)” (J Med Chem, 2008).

What follows are molecules tested against MRP2 (ABCC2) (Homo sapiens, UniProt Q92887) (assay: in vitro). Conditions: probe estradiol-17-beta-glucuronide.
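Note: Inside-out membrane vesicles from Sf9 insect cells expressing human MRP2, measuring uptake of the estradiol glucuronide substrate, expressed as percent of untreated control.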
Description: Effect on human MRP2-mediated estradiol-17-beta-glucuronide transport in Sf9 cells inverted membrane vesicles relative to control

Chain of MRP2 (ABCC2) (Q92887 whole entry): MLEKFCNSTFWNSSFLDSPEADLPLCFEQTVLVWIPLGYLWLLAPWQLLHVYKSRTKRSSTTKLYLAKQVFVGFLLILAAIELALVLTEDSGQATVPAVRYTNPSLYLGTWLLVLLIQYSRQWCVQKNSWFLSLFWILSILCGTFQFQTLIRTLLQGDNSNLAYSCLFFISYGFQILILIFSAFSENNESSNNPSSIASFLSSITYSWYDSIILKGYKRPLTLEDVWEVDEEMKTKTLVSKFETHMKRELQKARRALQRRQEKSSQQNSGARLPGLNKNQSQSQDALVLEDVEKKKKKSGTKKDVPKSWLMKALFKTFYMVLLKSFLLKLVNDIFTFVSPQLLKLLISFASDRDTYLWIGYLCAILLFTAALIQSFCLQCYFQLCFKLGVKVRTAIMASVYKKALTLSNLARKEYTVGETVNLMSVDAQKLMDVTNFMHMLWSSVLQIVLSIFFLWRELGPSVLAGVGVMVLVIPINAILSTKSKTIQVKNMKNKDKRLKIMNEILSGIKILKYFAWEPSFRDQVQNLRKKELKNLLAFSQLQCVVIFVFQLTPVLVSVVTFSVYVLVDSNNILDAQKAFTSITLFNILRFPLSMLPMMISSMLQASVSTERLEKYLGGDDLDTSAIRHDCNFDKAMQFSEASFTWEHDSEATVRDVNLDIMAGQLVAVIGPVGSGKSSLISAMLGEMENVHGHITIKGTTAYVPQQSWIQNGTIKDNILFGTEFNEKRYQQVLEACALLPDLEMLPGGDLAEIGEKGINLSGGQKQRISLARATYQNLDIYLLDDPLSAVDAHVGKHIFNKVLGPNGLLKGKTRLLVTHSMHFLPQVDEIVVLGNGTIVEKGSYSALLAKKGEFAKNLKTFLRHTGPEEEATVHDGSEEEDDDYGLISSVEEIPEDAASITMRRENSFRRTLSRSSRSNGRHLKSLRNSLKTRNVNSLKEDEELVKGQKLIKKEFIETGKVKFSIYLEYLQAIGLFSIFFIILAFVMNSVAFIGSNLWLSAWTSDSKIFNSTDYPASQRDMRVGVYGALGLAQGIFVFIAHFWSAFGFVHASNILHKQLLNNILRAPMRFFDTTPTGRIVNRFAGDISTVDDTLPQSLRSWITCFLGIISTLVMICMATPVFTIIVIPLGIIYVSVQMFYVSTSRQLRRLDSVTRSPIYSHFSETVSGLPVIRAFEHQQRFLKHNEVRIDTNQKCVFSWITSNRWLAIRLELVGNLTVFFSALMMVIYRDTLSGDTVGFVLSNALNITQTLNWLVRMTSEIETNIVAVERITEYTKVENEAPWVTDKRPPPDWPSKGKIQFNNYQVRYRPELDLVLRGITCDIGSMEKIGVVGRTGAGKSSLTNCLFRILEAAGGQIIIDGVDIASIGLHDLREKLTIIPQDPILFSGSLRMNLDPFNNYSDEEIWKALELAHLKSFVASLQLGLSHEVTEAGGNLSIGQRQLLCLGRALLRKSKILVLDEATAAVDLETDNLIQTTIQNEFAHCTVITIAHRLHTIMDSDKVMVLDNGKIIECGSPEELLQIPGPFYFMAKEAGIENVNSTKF

Row | SMILES | activity
1 | NCCCC[C@H](N[C@@H](CCc1ccccc1)C(=O)O)C(=O)N1CCC[C@H]1C(=O)O [LISINOPRIL ANHYDROUS] | 43%
2 | O[C@](CCN1CCCC1)(c1ccccc1)C1CCCCC1 [PROCYCLIDINE] | 62%
3 | C[C@@H]1CN(c2c(F)c(N)c3c(=O)c(C(=O)O)cn(C4CC4)c3c2F)C[C@H](C)N1 [SPARFLOXACIN] | 138%
4 | COc1ccc(CCN(C)CCCC(C#N)(c2ccc(OC)c(OC)c2)C(C)C)cc1OC (centres undefined) | 56%
5 | CCOC(=O)C1=C(C)NC(C)=C(C(=O)OC)C1c1cccc(Cl)c1Cl (centres undefined) [FELODIPINE] | 86%
6 | Nc1nc2c(c(=O)[nH]1)N(C=O)C(CNc1ccc(C(=O)N[C@@H](CCC(=O)O)C(=O)O)cc1)CN2 (some centres undefined) [LEUCOVORIN] | 103%
7 | CNC(=C[N+](=O)[O-])NCCSCc1csc(CN(C)C)n1 [NIZATIDINE] | 110%
8 | COc1cc2c(c(OC)c1OC)-c1ccc(OC)c(=O)cc1[C@@H](NC(C)=O)CC2 [COLCHICINE] | 101%
9 | C#Cc1cccc(Nc2ncnc3cc(OCCOC)c(OCCOC)cc23)c1 [ERLOTINIB] | 47%
10 | CC(=O)N1CCN(c2ccc(OC[C@H]3CO[C@](Cn4ccnc4)(c4ccc(Cl)cc4Cl)O3)cc2)CC1 [KETOCONAZOLE] | 76%
11 | O=c1cc(-c2ccccc2)oc2cc(O)cc(O)c12 [CHRYSIN] | 110%
12 | O=C1C[C@@H](c2ccc(O)cc2)Oc2cc(O)cc(O)c21 [NARINGENIN] | 207%
13 | Cc1c(OCC(F)(F)F)ccnc1C[S+]([O-])c1nc2ccccc2[nH]1 (centres undefined) [LANSOPRAZOLE] | 34%
14 | CC(=O)S[C@@H]1CC2=CC(=O)CC[C@]2(C)[C@H]2CC[C@@]3(C)[C@@H](CC[C@@]34CCC(=O)O4)[C@H]12 [SPIRONOLACTONE] | 125%
15 | C[n+]1cc2c3c(ccc2c2ccc4cc5c(cc4c21)OCO5)OCO3 [SANGUINARIUM CHLORIDE] | 44%
16 | CCS(=O)(=O)CCn1c([N+](=O)[O-])cnc1C [TINIDAZOLE] | 55%
17 | Cc1onc(-c2c(F)cccc2Cl)c1C(=O)N[C@@H]1C(=O)N2[C@@H]1SC(C)(C)[C@@H]2C(=O)O [FLOXACILLIN] | 73%
18 | CC(C)[C@@]1(NC(=O)[C@@H]2C=C3c4cccc5[nH]cc(c45)C[C@H]3N(C)C2)O[C@@]2(O)[C@@H]3CCCN3C(=O)[C@H](Cc3ccccc3)N2C1=O [ERGOCRISTINE] | 60%
19 | CN1C(C(=O)Nc2ccccn2)=C(O)c2ccccc2S1(=O)=O [PIROXICAM] | 100%
20 | N=C(N)NC(=O)c1nc(Cl)c(N)nc1N [AMILORIDE] | 82%
21 | C=C(C)[C@H]1Cc2c(ccc3c2O[C@@H]2COc4cc(OC)c(OC)cc4[C@@H]2C3=O)O1 [ROTENONE] | 92%
22 | O=C1C(CC[S+]([O-])c2ccccc2)C(=O)N(c2ccccc2)N1c1ccccc1 (centres undefined) [SULFINPYRAZONE] | 150%
23 | C[C@]12C=CC(=O)C=C1CC[C@@H]1[C@@H]2[C@@H](O)C[C@@]2(C)[C@H]1CC[C@]2(O)C(=O)CO [PREDNISOLONE] | 110%
24 | CC(C)NCC(O)COc1cccc2ccccc12 (centres undefined) [PROPRANOLOL] | 69%
25 | Nc1ccc(O)c(C(=O)O)c1 [MESALAMINE] | 109%
26 | CNC(=O)c1cccnc1 [NICOTINYL METHYLAMIDE] | 101%

Row | SMILES | activity
27 | CCc1oc2ccccc2c1C(=O)c1cc(Br)c(O)c(Br)c1 [BENZBROMARONE] | 11%
28 | Cn1nnnc1SCC1=C(C(=O)O)N2C(=O)[C@@H](NC(=O)[C@H](O)c3ccccc3)[C@H]2SC1 [CEFAMANDOLE] | 63%
29 | C=C[C@H]1C[N@@]2CC[C@H]1C[C@H]2[C@H](O)c1ccnc2ccc(OC)cc12 [QUININE] | 75%
30 | CO[C@H]1/C=C/O[C@@]2(C)Oc3c(C)c(O)c4c(O)c(c(/C=N/N5CCN(C)CC5)c(O)c4c3C2=O)NC(=O)/C(C)=C\C=C\[C@H](C)[C@H](O)[C@@H](C)[C@@H](O)[C@@H](C)[C@H](OC(C)=O)[C@@H]1C [RIFAMPIN] | 18%
31 | Cc1cnc(C(=O)NCCc2ccc(S(=O)(=O)NC(=O)NC3CCCCC3)cc2)cn1 [GLIPIZIDE] | 81%
32 | COc1ccc(/C=C/C(=O)Nc2ccccc2C(=O)O)cc1OC | 98%
33 | O=C(O)[C@H]1O[C@@H](Oc2cc3oc(-c4ccccc4)cc(=O)c3c(O)c2O)[C@H](O)[C@@H](O)[C@@H]1O [BAICALIN] | 34%
34 | NNC(=O)c1ccncc1 [ISONIAZID] | 96%
35 | CN(C)CC/C=C1/c2ccccc2Sc2ccc(Cl)cc21 [CHLORPROTHIXENE] | 25%
36 | NC(=O)N1c2ccccc2C=Cc2ccccc21 [CARBAMAZEPINE] | 86%
37 | C[C@H](CCC(=O)O)[C@H]1CC[C@H]2[C@@H]3[C@H](O)C[C@@H]4C[C@H](O)CC[C@]4(C)[C@H]3C[C@H](O)[C@]12C [CHOLIC ACID] | 112%
38 | Nc1ncnc2c1ncn2CCOCP(=O)(O)O [ADEFOVIR] | 96%
39 | OCCN(CCO)c1nc(N2CCCCC2)c2nc(N(CCO)CCO)nc(N3CCCCC3)c2n1 [DIPYRIDAMOLE] | 42%
40 | CCC(C)(C)C(=O)O[C@H]1C[C@@H](C)C=C2C=C[C@H](C)[C@H](CC[C@@H]3C[C@@H](O)CC(=O)O3)[C@H]21 [SIMVASTATIN] | 61%
41 | CC(C)C(=O)Nc1ccc([N+](=O)[O-])c(C(F)(F)F)c1 [FLUTAMIDE] | 126%
42 | COc1cc([C@@H]2c3cc4c(cc3[C@@H](O[C@@H]3O[C@@H]5CO[C@@H](C)O[C@H]5[C@H](O)[C@H]3O)[C@H]3COC(=O)[C@H]23)OCO4)cc(OC)c1O [ETOPOSIDE] | 110%
43 | NC12CC3CC(CC(C3)C1)C2 [AMANTADINE] | 101%
44 | CNCC[C@@H](Oc1ccccc1C)c1ccccc1 [ATOMOXETINE] | 109%
45 | CN1[C@@H]2CC[C@H]1C[C@@H](OC(=O)C(CO)c1ccccc1)C2 (some centres undefined) [ATROPINE] | 59%
46 | CCCC1O[C@@H]2C[C@H]3[C@@H]4CCC5=CC(=O)C=C[C@]5(C)[C@H]4[C@@H](O)C[C@]3(C)[C@]2(C(=O)CO)O1 (some centres undefined) [BUDESONIDE] | 150%
47 | CCCN(CCC)S(=O)(=O)c1ccc(C(=O)O)cc1 [PROBENECID] | 110%
48 | COc1ccc(Cl)cc1C(=O)NCCc1ccc(S(=O)(=O)NC(=O)NC2CCCCC2)cc1 [GLYBURIDE] | 304%
49 | Cc1ccnc2c1NC(=O)c1cccnc1N2C1CC1 [NEVIRAPINE] | 121%
50 | Cc1ccc(S(=O)(=O)NC(=O)NN2CC3CCCC3C2)cc1 (centres undefined) [GLICLAZIDE] | 174%
51 | COc1ccc(-c2coc3cc(O)cc(O)c3c2=O)cc1 [BIOCHANIN] | 84%
52 | COc1ccc2[nH]c([S+]([O-])Cc3ncc(C)c(OC)c3C)nc2c1 (centres undefined) [OMEPRAZOLE] | 101%

Row | SMILES | activity
53 | C[C@]12CC[C@@H]3c4ccc(O)cc4CC[C@H]3[C@@H]1CC[C@@H]2O [ESTRADIOL] | 123%
54 | CCC[C@@]1(CCc2ccccc2)CC(O)=C([C@H](CC)c2cccc(NS(=O)(=O)c3ccc(C(F)(F)F)cn3)c2)C(=O)O1 | 88%
55 | CC1=C(CC(=O)O)c2cc(F)ccc2/C1=C\c1ccc(S(C)(=O)=O)cc1 [EXISULIND] | 113%
56 | CC1COc2c(N3CCN(C)CC3)c(F)cc3c(=O)c(C(=O)O)cn1c23 (centres undefined) [OFLOXACIN] | 83%
57 | CCOC(=O)N1CCC(=C2c3ccc(Cl)cc3CCc3cccnc32)CC1 [LORATADINE] | 6%
58 | NS(=O)(=O)c1cc(C(=O)O)c(NCc2ccco2)cc1Cl [FUROSEMIDE] | 118%
59 | C[C@H](CS)C(=O)N1CCC[C@H]1C(=O)O [CAPTOPRIL] | 104%
60 | CCCCOc1ccc(OCCCN2CCOCC2)cc1 [PRAMOXINE] | 69%
61 | O=C1c2c(O)ccc(O)c2C(=O)c2c(NCCNCCO)ccc(NCCNCCO)c21 [MITOXANTRONE] | 175%
62 | O=C1c2c(O)cc(O)cc2O[C@H](c2ccc(O)c(O)c2)[C@H]1O [(+)-TAXIFOLIN] | 108%
63 | CC(=O)[C@@]1(O)CC[C@H]2[C@@H]3C[C@H](C)C4=CC(=O)CC[C@]4(C)[C@H]3CC[C@@]21C | 111%
64 | CCCC(CCC)C(=O)O [VALPROIC ACID] | 94%
65 | CC1(C)C(/C=C/C=C/C=C/C=C2\N(CCCCS(=O)(=O)O)c3ccc4ccccc4c3C2(C)C)=[N+](CCCCS(=O)(=O)[O-])c2ccc3ccccc3c21 [INDOCYANINE GREEN] | 5%
66 | Oc1ccc(/C=C/c2cc(O)cc(O)c2)cc1 [RESVERATROL] | 75%
67 | [H]/N=C(/N)N/C(=N/[H])NCCc1ccccc1 [PHENFORMIN] | 88%
68 | CSc1ccc2c(c1)N(CCC1CCCCN1C)c1ccccc1S2 (centres undefined) [THIORIDAZINE] | -1%
69 | O=C1OC(c2ccc(O)c(S(=O)(=O)O)c2)(c2ccc(O)c(S(=O)(=O)O)c2)c2c(Br)c(Br)c(Br)c(Br)c21 [SULFOBROMOPHTHALEIN SODIUM] | 5%
70 | O=C(O)[C@H]1O[C@@H](Oc2ccc([N+](=O)[O-])cc2)[C@H](O)[C@@H](O)[C@@H]1O | 99%
71 | CCOc1ccc(-c2nc3cc(-c4nc5cc(N6CCN(C)CC6)ccc5[nH]4)ccc3[nH]2)cc1 | 70%
72 | Cc1cc(=O)n(-c2ccccc2)n1C [ANTIPYRINE] | 84%
73 | O=C1Nc2ccc(Cl)cc2C(c2ccccc2)=NC1O (centres undefined) [OXAZEPAM] | 103%
74 | O=c1c(O)c(-c2ccc(O)c(O)c2)oc2cc(O)cc(O)c12 [QUERCETIN] | 40%
75 | O=C(O)Cc1ccccc1Nc1c(Cl)cccc1Cl [DICLOFENAC] | 198%
76 | CC(NCCC(c1ccccc1)c1ccccc1)c1ccccc1 (centres undefined) [FENDILINE] | 5%
77 | C[C@]12CC[C@H]3[C@@H](CCC4=CC(=O)CC[C@@H]43)[C@@H]1CC[C@@H]2O [NANDROLONE] | 106%

Same assay, conditions: sf9

Row | SMILES | activity
78 | COc1cc2ncnc(Nc3ccc(F)c(Cl)c3)c2cc1OCCCN1CCOCC1 [GEFITINIB] | 74%
79 | COC(=O)[C@H]1[C@H]2C[C@@H]3c4[nH]c5cc(OC)ccc5c4CCN3C[C@H]2C[C@@H](OC(=O)c2cc(OC)c(OC)c(OC)c2)[C@@H]1OC [RESERPINE] | 37%
80 | CN1CCC[C@H]1c1cccnc1 [NICOTINE] | 101%
81 | CN(Cc1cnc2nc(N)nc(N)c2n1)c1ccc(C(=O)N[C@@H](CCC(=O)O)C(=O)O)cc1 [METHOTREXATE] | 130%
82 | CN/C(=N/CCSCc1nc[nH]c1C)NC#N [CIMETIDINE] | 91%
83 | O=C1CN(/N=C/c2ccc([N+](=O)[O-])o2)C(=O)N1 [NITROFURANTOIN] | 94%
84 | COc1cc(Cc2cnc(N)nc2N)cc(OC)c1OC [TRIMETHOPRIM] | 107%
